Target: T1, human orexin type 2 receptor (Homo sapiens, UniProt O43614)
T1 construct: expressed in transfected cells
T1 sequence (O43614 1-444): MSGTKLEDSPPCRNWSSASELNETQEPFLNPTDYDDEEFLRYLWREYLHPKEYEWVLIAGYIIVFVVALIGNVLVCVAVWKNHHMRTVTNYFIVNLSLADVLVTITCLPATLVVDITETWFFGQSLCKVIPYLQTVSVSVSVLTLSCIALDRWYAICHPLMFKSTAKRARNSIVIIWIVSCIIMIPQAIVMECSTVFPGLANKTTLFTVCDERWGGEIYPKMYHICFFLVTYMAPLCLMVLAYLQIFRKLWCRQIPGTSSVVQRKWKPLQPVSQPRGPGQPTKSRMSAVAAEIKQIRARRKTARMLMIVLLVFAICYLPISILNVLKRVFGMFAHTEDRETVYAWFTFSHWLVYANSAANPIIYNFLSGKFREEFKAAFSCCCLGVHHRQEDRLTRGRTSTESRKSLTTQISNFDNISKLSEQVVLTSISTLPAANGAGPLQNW
Assay: Measurement of orexin type 2 receptor agonist activity (calcium indicator fluorescence, CHO cells forcibly expressing human OX2 receptor)
Format: cell-based
Settings: compound at 3 μM; 0% = DMSO, 100% = orexin A (human) 10 nM
How it was run: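 CHO-dhfr cells stably expressing human OX2R, loaded with Fluo-4 AM (30 min 37 °C, then 30 min RT), then given test compound. Calcium fluorescence read by FDSS over ~2 min. Activity (%) scaled from DMSO (0%) to 10 nM final orexin A (100%).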

Row | SMILES | OX2R agonist activity (3 μM, %) [%]
1 | O=C(C1CCO1)N1C[C@H](F)[C@H](NS(=O)(=O)C2CC2)[C@@H]1Cc1cccc(-c2ccccc2)c1F (stereo partly drawn) [Example 482, N-[(2S,3R,4S)-4-fluoro-2-[(2-fluoro[1,1′-biphenyl]-3-yl)methyl]-1-(oxetane-2-carbonyl)pyrrolidin-3-yl]cyclopropanesulfonamide] | 100
2 | O=C(C1CCO1)N1C[C@H](F)[C@H](NS(=O)(=O)C2CC2)[C@@H]1Cc1cccc(-c2ccccc2F)c1F (stereo partly drawn) [Example 483, N-[(2S,3R,4S)-2-[(2,2′-difluroo[1,1′-biphenyl]-3-yl)methyl]-4-fluoro-1-(oxetane-2-carbonyl)pyrrolidin-3-yl]cyclopropanesulfonamide] | 108
3 | Cc1cccc(-c2cccc(C[C@H]3[C@@H](NS(=O)(=O)C4CC4)[C@@H](F)CN3C(=O)C3CCO3)c2F)c1 (stereo partly drawn) [Example 484, N-[(2S,3R,4S)-4-fluoro-2-[(2-fluoro-3′-methyl[1,1′-biphenyl]-3-yl)methyl]-1-(oxetane-2-carbonyl)pyrrolidin-3-yl]cyclopropanesulfonamide] | 90
4 | O=C(C1CCO1)N1C[C@H](F)[C@H](NS(=O)(=O)C2CC2)[C@@H]1Cc1cccc(-c2cccc(Cl)c2)c1F (stereo partly drawn) [Example 485, N-[(2S,3R,4S)-2-[(3′-chloro-2-fluoro[1,1′-biphenyl]-3-yl)methyl]-4-fluoro-1-(oxetane-2-carbonyl)pyrrolidin-3-yl]cyclopropanesulfonamide] | 93
5 | Cc1cc(F)cc(-c2cccc(C[C@H]3[C@@H](NS(=O)(=O)C4CC4)[C@@H](F)CN3C(=O)C3CCO3)c2F)c1 (stereo partly drawn) [Example 486, N-[(2S,3R,4S)-2-[(2,3′-difluoro-5′-methyl[1,1′-biphenyl]-3-yl)methyl]-4-fluoro-1-(oxetane-2-carbonyl)pyrrolidin-3-yl]cyclopropanesulfonamide] | 88
6 | Cc1cccc(-c2cccc(C[C@H]3[C@@H](NS(=O)(=O)C4CC4)[C@@H](F)CN3C(=O)C3CCO3)c2F)c1F (stereo partly drawn) [Example 487, N-[(2S,3R,4S)-2-[(2,2′-difluoro-3′-methyl[1,1′-biphenyl]-3-yl)methyl]-4-fluoro-1-(oxetane-2-carbonyl)pyrroldiin-3-yl]cyclopropanesulfonamide] | 95
7 | Cc1ccc(F)c(-c2cccc(C[C@H]3[C@@H](NS(=O)(=O)C4CC4)[C@@H](F)CN3C(=O)C3CCO3)c2F)c1 (stereo partly drawn) [Example 488, N-[(2S,3R,4S)-2-[(2,2′-difluoro-5′-methyl[1,1′-biphenyl]-3-yl)methyl]-4-fluoro-1-(oxetane-2-carobnyl)pyrrolidin-3-yl]cycloproapnesulfonamide] | 95
8 | Cc1cccc(-c2cccc(C[C@H]3[C@@H](NS(=O)(=O)C4CC4)[C@@H](F)CN3C(=O)C3CCO3)c2F)c1 (stereo partly drawn) [Example 489, N-[(2S,3R,4S)-4-fluoro-2-[(2-fluoro-3′-methyl[1,1′-biphenyl]-3-yl)methyl]-1-(oxetane-2-carbonyl)pyrrolidin-3-yl]cyclopropanesulfonamide] | 92
9 | Cc1cccc(-c2cccc(C[C@H]3[C@@H](NS(=O)(=O)C4CC4)[C@@H](F)CN3C(=O)C3CCO3)c2F)c1F (stereo partly drawn) [Example 490, N-[(2S,3R,4S)-2-[(2,2′-difluoro-3′-methyl[1,1′-biphenyl]-3-yl)methyl]-4-fluoro-1-(oxetane-2-carobnyl)pyrrolidin-3-yl]cyclopropanesulfonamide] | 93
10 | Cc1cc(F)cc(-c2cccc(C[C@H]3[C@@H](NS(=O)(=O)C4CC4)[C@@H](F)CN3C(=O)C3CCO3)c2F)c1 (stereo partly drawn) [Example 491, N-[(2S,3R,4S)-2-[(2,3′-difluoro-5′-methyl[1,1′-biphenyl]-3-yl)methyl]-4-fluoro-1-(oxetane-2-carbonyl)pyrrolidin-3-yl]cyclopropanesulfonamide] | 93
11 | Cc1ccc(F)c(-c2cccc(C[C@H]3[C@@H](NS(=O)(=O)C4CC4)[C@@H](F)CN3C(=O)C3CCO3)c2F)c1 (stereo partly drawn) [Example 492, N-[(2S,3R,4S)-2-[(2,2′-difluoro-5′-methyl[1,1′-biphenyl]-3-yl)methyl]-4-fluoro-1-(oxetane-2-carbonyl)pyrrolidin-3-yl]cyclopropanesulfonamide] | 90
12 | O=C(C1CCO1)N1C[C@H](F)[C@H](NS(=O)(=O)C2CC2)[C@@H]1Cc1cccc(-c2cc(F)cc(F)c2)c1F (stereo partly drawn) [Example 493, N-{(2S,3R,4S)-4-fluoro-1-(oxetane-2-carbonyl)-2-[(2,3′,5′-trifluoro[1,1′-biphenyl]-3-yl)methyl]pyrrolidin-3-yl}cyclopropanesulfonamide] | 95

Other lines, results leading:

Row | OX2R agonist activity (3 μM, %) [%] | SMILES
13 | 96 | O=C(C1CCO1)N1C[C@H](F)[C@H](NS(=O)(=O)C2CC2)[C@@H]1Cc1cccc(-c2cccc(F)c2F)c1F (stereo partly drawn) [Example 494, N-{(2S,3R,4S)-4-fluoro-1-(oxetane-2-carbonyl)-2-[(2,2′,3′-trifluoro[1,1′-biphenyl]-3-yl)methyl]pyrrolidin-3-yl}cyclopropanesulfonamide]
14 | 92 | O=C(C1CCO1)N1C[C@H](F)[C@H](NS(=O)(=O)C2CC2)[C@@H]1Cc1cccc(-c2cc(F)ccc2F)c1F (stereo partly drawn) [Example 495, N-{(2S,3R,4S)-4-fluoro-1-(oxetane-2-carbonyl)-2-[(2,2′,5′-trifluoro[1,1′-biphenyl]-3-yl)methyl]pyrrolidin-3-yl}cyclopropanesulfonamide]
15 | 95 | O=C(C1CCO1)N1C[C@H](F)[C@H](NS(=O)(=O)C2CC2)[C@@H]1Cc1cccc(-c2ccccc2)c1F (stereo partly drawn) [Example 496, N-[(2S,3R,4S)-4-fluoro-2-[(2-fluoro[1,1′-biphenyl]-3-yl)methyl]-1-(oxetane-2-carbonyl)pyrrolidin-3-yl]cyclopropanesulfonamide]
16 | 91 | O=C(C1CCO1)N1C[C@H](F)[C@H](NS(=O)(=O)C2CC2)[C@@H]1Cc1cccc(-c2cccc(Cl)c2)c1F (stereo partly drawn) [Example 497, N-[(2S,3R,4S)-2-[(3′-chloro-2-fluoro[1,1′-biphenyl]-3-yl)methyl]-4-fluoro-1-(oxetane-2-carbonyl)pyrrolidin-3-yl]cyclopropanesulfonamide]
17 | 99 | CCS(=O)(=O)N[C@H]1[C@@H](F)CN(C(=O)C2CCO2)[C@H]1Cc1cccc(-c2cccc(C)c2)c1F (stereo partly drawn) [Example 498, N-[(2S,3R,4S)-4-fluoro-2-[(2-fluoro-3′-methyl[1,1′-biphenyl]-3-yl)methyl]-1-(oxetane-2-carbonyl)pyrrolidin-3-yl]ethanesulfonamide]
18 | 96 | CCS(=O)(=O)N[C@H]1[C@@H](F)CN(C(=O)C2CCO2)[C@H]1Cc1cccc(-c2cccc(C)c2F)c1F (stereo partly drawn) [Example 499, N-[(2S,3R,4S)-2-[(2,2′-difluoro-3′-methyl[1,1′-biphenyl]-3-yl)methyl]-4-fluoro-1-(oxetane-2-carbonyl)pyrrolidin-3-yl]ethanesulfonamide]
19 | 98 | CCS(=O)(=O)N[C@H]1[C@@H](F)CN(C(=O)C2CCO2)[C@H]1Cc1cccc(-c2ccc(F)c(C)c2)c1F (stereo partly drawn) [Example 500, N-[(2S,3R,4S)-2-[(2,4′-difluoro-3′-methyl[1,1′-biphenyl]-3-yl)methyl]-4-fluoro-1-(oxetane-2-carbonyl)pyrrolidin-3-yl]ethanesulfonamide]

— patent publication US20230040770A1, “HETEROCYCLIC COMPOUND AND USE THEREOF” (TAKEDA PHARMACEUTICAL COMPANY LIMITED, priority 2019, published 2023)
